{
  "source": "patent US20170055533A1",
  "about": "“AROMATIC PHOSPHATE ESTERS AS AGROCHEMICAL FORMULATION COMPONENT” (priority 2011, published 2017)",
  "format_in_all_cases": "in vivo",
  "key": {"Septoria tritici [1]": {"system": "Septoria tritici", "conditions": "conclusion from Table 1"}, "Septoria tritici [2]": {"system": "Septoria tritici", "experiment": "Septoria tritici on wheat plants, cyproconazole with and without phosphate ester adjuvants", "conditions": "conclusion from Table 2"}, "[3]": {"system": "Chenopodium album (CHEAL), Abutilon theophrasti (ABUTH), Setaria viridis (SETVI) and Digitaria sanguinalis (DIGSA)", "experiment": "Glasshouse weed kill test, nicosulfuron with and without adjuvants", "conditions": "conclusion from Table 3", "description": "The efficacy of the aromatic phosphate esters tricresyl phosphate, Phosflex® 362 (2-ethylhexyl diphenyl phosphate) and triphenyl phosphate were tested in a glasshouse against four weed species using the herbicide nicosulfuron. An agrochemical composition was prepared containing 0.5% v/v of the adjuvant Atplus® 411 F in a track sprayer, and was applied at a volume of 200 litres per hectare. The other adjuvants were tested at a arte of 0.2% v/v. Nicosulfuron was applied at a rate of either 30 or 60 grams of pesticide per hectare to weeds which had been grown to the 1.3 or 1.4 leaf stage. The weed species were Chenopodium album (CHEAL), Abutilon theophrasti (ABUTH), Setaria viridis (SETVI) and Digitaria sanguinalis (DIGSA).\nEach spray test was replicated three times. The efficacy of the herbicide was assessed visually and expressed as a percentage of the leaf area killed. Samples were assessed at time periods of 14 and 21 days following application. The results shown in Table 3 below are mean averages over the two rates of nicosulfuron, three replicates, four weed species and the two assessment timings, and are compared to the efficacy of nicosulfuron in the absence of adjuvant and nicosulfuron in the presence of the known tank mix adjuvant Atplus® 411F."}, "Tetranychus urticae": {"system": "Tetranychus urticae", "experiment": "Mortality of two spotted spider mite on French bean plants, abamectin with and without phosphate ester", "conditions": "for mortality of Tetranychus urticae, phosphate ester composition without abamectin: 0.14% v/v phosphate ester, no abamectin present; for % mortality of Tetranychus urticae: phosphate ester 0.14% v/v, 10 days, larva and adults averaged, lower side of leaves", "description": "The efficacy of the aromatic phosphate ester Phosflex® 362 (2-ethylhexyl diphenyl phosphate) as an adjuvant in a composition containing abamectin was tested and compared to the efficacy of an abamectin composition without the Phosflex® 362 present, and to the efficacy of an abamectin composition containing triethyl phosphate. The Phosflex® 362 and the triethyl phosphate were present at 0.14% v/v in the abamectin compositions. The surfactants tristyrylphenol ethoxylate phosphate ester, sodium salt and tristyrylphenol ethoxylate were present in all the abamectin compositions tested.\nTwo week old French bean (Phaseolus vulgaris) plants were infested with a mixed population of two spotted spider mite Tetranychus urticae. One day after infestation the plants were treated with the test compositions, with a track sprayer from the top with a rate of 200 litres per hectare. Plants were incubated in the greenhouse for 10 days and the evaluation was done on mortality against Larva and Adults, just on the lower side (untreated) of the leaves. Each experiment was replicated twice and the results were averaged. The mortality against Larva and Adults was then averaged."}},
  "note": "“Also recorded” adds a separate entry of the source.",
  "data": [
    {"compound": "CCCCC(CC)COP(=O)(Oc1ccccc1)Oc1ccccc1", "note": "(stereo not shown) [Phosflex® 362, 2-ethylhexyldiphenyl phosphate]", "values": [
      {"measurement": "efficacy as adjuvant for isopyrazam (in words)", "setting": "Septoria tritici [1]", "result": "more efficacious as an adjuvant than any of the other compounds tested"},
      {"measurement": "efficacy as adjuvant for cyproconazole (in words)", "setting": "Septoria tritici [2]", "result": "performed best as an adjuvant out of the compounds tested"},
      {"measurement": "efficacy as adjuvant for nicosulfuron (in words)", "setting": "[3]", "result": "performing particularly well"},
      {"measurement": "mortality of Tetranychus urticae, phosphate ester composition without abamectin", "setting": "Tetranychus urticae", "result": "no mortality was observed"},
      {"measurement": "efficacy as adjuvant for abamectin (in words)", "setting": "Tetranychus urticae; conclusion from Table 7", "result": "more effective control of Tetranychus urticae than the treatment containing abamectin with no adjuvant present; also recorded: considerably more effective than the alkyl phosphate ester triethyl phosphate"}
    ]},
    {"compound": "abamectin", "values": [
      {"measurement": "% mortality of Tetranychus urticae", "setting": "Tetranychus urticae; 0.8 ppm abamectin", "result": 0, "unit": "%"},
      {"measurement": "% mortality of Tetranychus urticae", "setting": "Tetranychus urticae; 3 ppm abamectin", "result": 20, "unit": "%"},
      {"measurement": "% mortality of Tetranychus urticae", "setting": "Tetranychus urticae; 12.5 ppm abamectin", "result": 50, "unit": "%"}
    ]},
    {"compound": "CCOP(=O)(OCC)OCC", "note": "[triethyl phosphate]", "values": [
      {"measurement": "mortality of Tetranychus urticae, phosphate ester composition without abamectin", "setting": "Tetranychus urticae", "result": "no mortality was observed"}
    ]},
    {"compound": "tricresyl phosphate [tricresylphosphate, reference compound]", "values": [
      {"measurement": "efficacy as adjuvant for nicosulfuron (in words)", "setting": "[3]", "result": "performing particularly well"}
    ]}
  ]
}
